According to patent publication US7429564B2, “Oral insulin therapy” (Emisphere Technologies, Inc., priority 2002, dated 2008):
Read-outs that look alike come from different tables or passages of the source.

Assays:
[1] = Example 8: food effect on 4-CNAB pharmacokinetics, type 1 diabetes patients; type: in vivo, human; conditions: for AUC / Cmax / Tmax / AUC(0-inf) / half-life: human, plasma; for AUC(0-inf): read-out: Plasma 4-CNAB AUC0-inf; for half-life: read-out: Plasma 4-CNAB t1/2 (converted)
Procedure: A single-center, open label, randomized, single dose, 3-way cross-over study was conducted in type 1 diabetes mellitus patients to investigate the effect of food on the absorption and pharmacokinetics of insulin after a single dose of oral 4-CNAB/insulin, and to determine the effect of food on the pharmacodynamics of glucose and C-peptide after a single oral dose of 4-CNAB/insulin.
For diabetic patients, the study consisted of an eligibility screening period, three study periods and a follow-up exam at the conclusion of the last period. The three study periods included the following: administration of single doses of 4-CNAB/insulin followed by fasting (treatment A), followed by an ADA breakfast […] after dosing (treatment B), and followed by an ADA breakfast […] after dosing (treatment C). The study was conducted using an open label, randomized, crossover design with an interval of at least 7 days between treatments. The patients fasted overnight. The type 1 diabetics were randomized to treatment A or […] in periods 1 and 2. In period 3, all diabetics received treatment C. A total of eight type 1 diabetic patients were enrolled. As a control group, two healthy volunteers were enrolled.
The following treatments were administered to the type 1 diabetics according to the randomization schedule (see below) • a) 400 mg 4-CNAB/300 IU insulin followed by fasting; • b) 400 mg 4-CNAB/300 IU insulin followed by an ADA breakfast 30 minutes after dosing; • c) 400 mg 4-CNAB/300 IU insulin followed by an ADA breakfast 20 minutes after dosing.
Blood samples for pharmacokinetic analysis of 4-CNAB and insulin were drawn 30, 15 and 5 minutes prior to and at 10, 20, 30, 40, 50, 60, 75, 90, 105, 120, 150, 180, 210, and 240 minutes after 4-CNAB/insulin administration (17 samples per subject per period). Blood samples for plasma glucose were drawn 30, 15 and 5 minutes prior to and at 10, 20, 30, 40, 50, 60, 75, 90, 105, 120, 150, 180, 210, and 240 minutes after administration (17 samples per subject per period). Blood samples for C-peptide were drawn 30 and 5 minutes prior to and 30, 60, 90, 120, 180 and 240 minutes after administration (8 samples per subject per period).

[2] = Example 5: plasma insulin pharmacokinetics, healthy male volunteers; conditions: human, in vivo
Procedure: In Group 1, there were four escalating single doses of 4-CNAB (400, 800, 1400 and 2000 mg) and each subject received either all four of these escalating doses or three escalating single doses and one dose of placebo. […] In Group 3 there were three escalating oral doses of Insulin/4-CNAB (100 Units/300 mg, 100 Units/450 mg and 150 Units/100 mg) and one SC dose of 150 Units of insulin. Each subject received either all four of these treatments or three of these treatments and one placebo treatment. For all groups, there was a washout period of at least 72 hours between treatment periods.
For insulin/4-CNAB treatment Groups 2 and 3, subjects' blood samples (1 drop per sample) were drawn at 15 minutes before dosing, and at 5, 10, 15, 20, 25, 30, 35, 40, and 50 minutes and at 1, 1.25, 1.5, 1.75, 2, 2.5, 3, 4, 6, 8 and 12 hours post-dose (21 samples per treatment for Insulin/4-CNAB dosing groups) for plasma glucose, insulin and C-peptide measurements. For the 4-CNAB alone treatment Group 1, blood samples were collected before dosing (−15 minutes), and at 30 minutes and at 2 hr post-dose for blood glucose measurements. For the insulin alone control group (minimum 3 subjects), blood samples (3 mL in sodium heparin tube) were drawn at 15 minutes before dosing, and at 10, 20, 30, 40, 50 minutes and 1, 1.25, 2, 2.5, 3 and 6 hr post-dose (12 samples per treatment). The blood samples for glucose were assayed in real time using a Glucometer®. These measurements were used for detection of onset of hypoglycemia, so rescue action could be taken where necessary. Plasma glucose, insulin and C-peptide measurements were done according to standard procedures.
On the basis of plasma concentrations of 4-CNAB and insulin, PK analysis was performed using non-compartmental PK methods as implemented in WinNonlin™ Professional version 3.2. The profiles for insulin and C-peptide corrected insulin were evaluated up to 6 hours as food was given 6 hours following insulin treatment. The following parameters were derived for 4-CNAB: Cmax, tmax, AUC(0-t), AUC(0-inf), AUC% Extrap, Kel, t1/2, CL/F, Vd/F, MRT(0-t), MRT(0-inf) and Frel. The following parameters were derived for insulin and C-peptide corrected insulin: Cmax, tmax, AUC(0-2), AUC(0-6), AUC(0-t) and concentrations (C^b) and corresponding time (t^b) immediately prior to intervention for hypoglycemia.
The plasma concentration-time profiles for 4-CNAB were evaluated in those subjects who received 4-CNAB or Insulin/4-CNAB treatments. Insulin, C-peptide and glucose concentration-time profiles following administration of all treatments were evaluated for the 20 subjects in Groups 2 and 3. Pharmacokinetic (“PK”) parameters for 4-CNAB, insulin and C-peptide corrected insulin, and pharmacodynamic (“PD”) parameters for glucose concentration change from baseline, respectively were calculated for subjects whether they required hypoglycemic rescue or not. Concentrations from subjects who required food/drink due to hypoglycemia were excluded from descriptive statistics.

[3] = oral, period 0-20 minutes post-dose, Breakfast 20 min post-dose
[4] = oral, period 0-20 minutes post-dose, Breakfast 30 min post-dose
[5] = oral, period 0-20 minutes post-dose, Fasting
[6] = oral, period 0-30 minutes post-dose, Breakfast 20 min post-dose
[7] = oral, period 0-30 minutes post-dose, Breakfast 30 min post-dose
[8] = oral, period 0-30 minutes post-dose, Fasting
[9] = oral, period 0-3 hours post-dose, Breakfast 20 min post-dose
[10] = oral, period 0-3 hours post-dose, Breakfast 30 min post-dose
[11] = oral, period 0-3 hours post-dose, Fasting
[12] = po, 400 mg, 400 mg 4-CNAB/300 IU insulin oral, Breakfast 20 min post-dose
[13] = po, 400 mg, 400 mg 4-CNAB/300 IU insulin oral, Breakfast 30 min post-dose
[14] = po, 400 mg, 400 mg 4-CNAB/300 IU insulin oral, Fasting

Molecule: O=C(O)CCCNC(=O)c1ccc(Cl)cc1O [4-CNAB, 4-[(4-chloro, 2-hydroxybenzoyl)amino]butanoic acid]
- Effect of food intake on 4-CNAB pharmacokinetics ([1]; breakfast 30 or 20 minutes after dosing): no effect on the pharmacokinetics of 4-CNAB
- AUC [1, 3]: 2800 ng·h/mL
- Cmax [1, 3]: 20600 ng/mL
- Tmax ([1]; oral, period 0-20 minutes post-dose, Breakfast 20 min post-dose, read-out: Plasma 4-CNAB tmax): 19.8 min
- AUC [1, 4]: 2280 ng·h/mL
- Cmax [1, 4]: 18800 ng/mL
- Tmax ([1]; oral, period 0-20 minutes post-dose, Breakfast 30 min post-dose, read-out: Plasma 4-CNAB tmax): 19.8 min
- AUC [1, 5]: 2900 ng·h/mL
- Cmax [1, 5]: 20700 ng/mL
- Tmax ([1]; oral, period 0-20 minutes post-dose, Fasting, read-out: Plasma 4-CNAB tmax): 19.8 min
- AUC [1, 6]: 6370 ng·h/mL
- Cmax [1, 6]: 24600 ng/mL
- Tmax ([1]; oral, period 0-30 minutes post-dose, Breakfast 20 min post-dose, read-out: Plasma 4-CNAB tmax): 25.2 min
- AUC [1, 7]: 5960 ng·h/mL
- Cmax [1, 7]: 24000 ng/mL
- Tmax ([1]; oral, period 0-30 minutes post-dose, Breakfast 30 min post-dose, read-out: Plasma 4-CNAB tmax): 28.8 min
- AUC [1, 8]: 6300 ng·h/mL
- Cmax [1, 8]: 21500 ng/mL
- Tmax ([1]; oral, period 0-30 minutes post-dose, Fasting, read-out: Plasma 4-CNAB tmax): 23.4 min
- AUC [1, 9]: 16500 ng·h/mL
- Cmax [1, 9]: 25000 ng/mL
- Tmax ([1]; oral, period 0-3 hours post-dose, Breakfast 20 min post-dose, read-out: Plasma 4-CNAB tmax): 27.6 min
- AUC [1, 10]: 17100 ng·h/mL
- Cmax [1, 10]: 24000 ng/mL
- Tmax ([1]; oral, period 0-3 hours post-dose, Breakfast 30 min post-dose, read-out: Plasma 4-CNAB tmax): 30 min
- AUC [1, 11]: 18300 ng·h/mL
- Cmax [1, 11]: 21800 ng/mL
- Tmax ([1]; oral, period 0-3 hours post-dose, Fasting, read-out: Plasma 4-CNAB tmax): 26.4 min
- Cmax [1, 12]: 25000 ng/mL
- AUC(0-inf) [1, 12]: 18000 ng·h/mL
- half-life [1, 12]: 39 min
- Tmax ([1]; po, 400 mg, 400 mg 4-CNAB/300 IU insulin oral, Breakfast 20 min post-dose, read-out: Plasma 4-CNAB tmax, Median (min-max)): 25.2 min
- Cmax [1, 13]: 24000 ng/mL
- AUC(0-inf) [1, 13]: 18400 ng·h/mL
- half-life [1, 13]: 42 min
- Tmax ([1]; po, 400 mg, 400 mg 4-CNAB/300 IU insulin oral, Breakfast 30 min post-dose, read-out: Plasma 4-CNAB tmax, Median (min-max)): 30 min
- Cmax [1, 14]: 21800 ng/mL
- AUC(0-inf) [1, 14]: 20700 ng·h/mL
- half-life [1, 14]: 51.6 min
- Tmax ([1]; po, 400 mg, 400 mg 4-CNAB/300 IU insulin oral, Fasting, read-out: Plasma 4-CNAB tmax, Median (min-max)): 25.2 min

Molecule: oral insulin alone: recombinant human zinc insulin given orally without delivery agent
- Cmax ([2]; po): 0.0384 nM
- Insulin AUC(0-2) ([2]; po): 51.8 ± 15.5 pmol·h/L
- Insulin tmax, median ([2]; po): 25.8 min

Molecule: SC insulin: human regular insulin injected subcutaneously (Humulin R or equivalent; Calbiochem insulin in the rat studies)
- Cmax ([2]; sc): 0.375 nM
- Insulin AUC(0-2) ([2]; sc): 414.3 ± 181.5 pmol·h/L
- Insulin AUC(0-6) ([2]; sc): 1228.5 ± 378.1 pmol·h/L
- Insulin C^b (immediately prior to recovery from hypoglycemia) ([2]; sc): 168.3 ± 77.5 pmol/L
- Insulin Cmax ([2]; sc): 54.5 ± 25.6 uU/ml
- Insulin t^b, median (range) ([2]; sc): 1.00 (0.75-1.25) h
- Insulin tmax ([2]; sc): 105 min
- Insulin tmax, median (range) ([2]; sc): 1.88 (1.58-4.00) h
